# Assay results published in patent publication US9925179B2, “Combination therapy for mental disorders” (priority 2014, dated 2018).
# Several values for one entry are separate records, joined by “and”; a condition that tells them apart may be missing. Equal entries are not always repeated.
# Key:
# BP-II patients [1] = test: Symptom severity (HDRS, YMRS) in 12-week randomized double-blind placebo-controlled add-on trial; format: in vivo, human; details: for Within group change (baseline minus endpoint) HDRS, Mean ± SD / Within group change (baseline minus endpoint) YMRS, Mean ± SD: BP-II patients, add-on to valproic acid, 12-week follow-up; for HDRS, difference versus placebo, B (standardized coefficient) / YMRS, difference versus placebo, B (standardized coefficient): GEE, treatment group x treatment duration interaction, placebo as reference, controlling for age, gender, treatment duration
# Source text: (§1) 250˜300 male and female BP-II patients (18˜65 years old) were recruited, from the Department of Psychiatry at National Cheng Kung University Hospital and Tri-Service General Hospital into a 12-week treatment. The research protocol was examined for approval by the Institutional Review Board for the Protection of Human Subjects at National Cheng Kung University Hospital and Tri-Service General Hospital. All participants were given a complete description of the study and were asked to sign an informed consent before the study began. Patients who had major, mental illnesses other than BP-II and who had taken memantine or DM within 1 week before the first dose of the double-blind medication were excluded. The Chinese Version of Modified Schedule of Affective Disorder and Schizophrenia-Life Time (SADS-L) will be conducted for confirmation of the diagnosis. […] After each patient had been diagnosed based on DSM-IV criteria by a senior psychiatrist and confirmed by a clinical psychologist using a structured interview, SADS-L, the severity of each patient's clinical symptoms was assessed using the 17-item Hamilton Rating Scale for Depression (HRSD) and the Young Mania Rating Scale (YMRS). All the patients at Screen who score 18 on the HRSD or 14 on the YMRS were recruited. Eligible patients were randomly assigned into four treatment groups (n=40-45 for each group) in a double-blind manner and all groups matched in demographic characteristics, symptom severity, while they received open-label valproic acid (VPA) treatment (500 mg and 1000 mg daily [[…] in plasma]): 1) DM (30 mg/day), 2) memantine (5 mg/day), 3) combination of DM and memantine (30 mg/day DM and 5 mg/day memantine), and 4) placebo respectively for 12 weeks. Patients were randomized into 4 groups through a computer-generated randomization table to receive placebo or any of active treatments in a 1:1:1:1 ratio. The patients with side-effect intolerance or clinical worsening were withdrawn earlier.
# Efficacy will be assessed by the YMRS, HDRS and Side-Effects.
# Clinical ratings were performed by research psychiatric professionals who were well-trained and experienced in the rating scales. All assessments were blind to treatment assignment and completed at baseline and at the end of week 1, 2, 4, 8 and 12. Routine laboratory tests, including CBC and biochemistry were checked at baseline and the end of week 12.
# (2) Young Mania Rating Scale (YMRS) and 17-item Hamilton Depression Rating Scale (HDRS)
# Those clinically suspected of having a mood disorder were invited to be interviewed with the Chinese version SADS-L and diagnosed as having BP-II. The severity of current symptoms was assessed by using the YMRS and HDRS. The diagnosis of a mood disorder was made according to DSM-IV criteria, except for BP-II, for which we used a 2-day instead of a 4-day duration for hypomania.
# (§2) The intent to-treat (ITT) analysis set included all randomized patients who received at least one dose of study drug, and had one baseline assessment and at least one after baseline. All the outcome variables were analyzed in the ITT set, including HDRS, YMRS, cytokine levels, plasma BDNF levels and metabolic parameters; missing data was filled in using the last observation carried forward (LOCF) method.
# (§3) The overall within-group changes of each outcome over the 12 weeks were analyzed by paired sample t-test. To compare the difference in outcomes of add-on medication (DM30, MM5, and DM30+MM5) versus placebo, generalized estimating equation (GEE) was adopted. A total of 10 models ran with each outcome as a dependent variable. In each model, add-on medication received (DM30, MM5, and DM30+MM5 vs. controls), treatment duration, treatment received X treatment duration, gender, and age were included as independent variables. The covariance structure employed was autoregressive (AR(1)) model. The placebo group was used as reference group. […]
# TNF-α = test: Plasma TNF-α by ELISA in 12-week add-on trial; format: in vivo, human; details: for Within group change (baseline minus endpoint) TNF-α, Mean ± SD: BP-II patients, plasma, add-on to valproic acid, 12-week follow-up; for TNF-α, difference versus placebo, B (standardized coefficient): GEE interaction term, placebo as reference, controlling for age, gender, treatment duration, HDRS and YMRS
# Source text: as §1
# Serum levels of DM, memantine, plasma BDNF, and cytokines were measured. […] Plasma BDNF, CRP, TNF-α, were measured at baseline, 1, 2, 4, 8 and 12 weeks and quantified using the enzyme-linked immunosorbent assays (ELISAs). Cytokine levels were quantified using an antibody pair assay system (Flexia; BioSource Intl., Camarillo, Calif.). […]
# (§4) Symptom severity, immunological parameters (plasma tumor necrosis factor α (TNF-α) and C-reactive protein (CRP)) and plasma brain derived neurotrophic factor (BDNF) were examined regularly. Metabolic profiles (cholesterol, triglyceride, HbA1C, fasting serum glucose, body mass index [BMI]) were measured at baseline and 2, 8, and 12 weeks. […]
# (§5) The overall within-group changes of each outcome over the 12 weeks were analyzed by paired sample t-test. […]
# CRP = test: Plasma CRP by ELISA in 12-week add-on trial; format: in vivo, human; details: for Within group change (baseline minus endpoint) CRP, Mean ± SD: BP-II patients, plasma, add-on to valproic acid, 12-week follow-up; for CRP, difference versus placebo, B (standardized coefficient): GEE interaction term, placebo as reference, controlling for age, gender, treatment duration, HDRS and YMRS
# BDNF = test: Plasma BDNF by ELISA in 12-week add-on trial; format: in vivo, human; details: for Within group change (baseline minus endpoint) BDNF, Mean ± SD: BP-II patients, plasma, add-on to valproic acid, 12-week follow-up; for BDNF, difference versus placebo, B (standardized coefficient): GEE interaction term, placebo as reference, controlling for age, gender, treatment duration, HDRS and YMRS
# Source text: as §1
# Serum levels of DM, memantine, plasma BDNF, and cytokines were measured. […] of whole blood was drawn and collected from the antecubital vein. Plasma were isolated from the whole blood after the 3000 g centrifugation at 4° C. for 15 min and stored at −80° C. immediately. Plasma BDNF, CRP, TNF-α, were measured at baseline, 1, 2, 4, 8 and 12 weeks and quantified using the enzyme-linked immunosorbent assays (ELISAs). Cytokine levels were quantified using an antibody pair assay system (Flexia; BioSource Intl., Camarillo, Calif.). Sample processing and data analysis were done according to the manufacturer's instructions. The low limit sensitivity was 0.126 pg/ml, 0.057 pg/ml, and 20 pg/ml for TNF-α, IL-1β, and BDNF respectively. Finally, HPLC with UV detector and therapeutic drug monitoring (TDM) was used to measure the plasma DM and VPA level respectively.
# as §4, with “weeks. Concomitant benzodiazepine medication (lorazepam <8 mg) was used for nighttime sedation, and to treat agitation and insomnia during the study.” for “weeks.”
# as §5
# [2] = Metabolic profiles (cholesterol, HDL-C, LDL-C, triglyceride, glucose) in 12-week add-on trial; format: in vivo, human; details: for Within group change (baseline minus endpoint) Glucose, Mean ± SD / Within group change (baseline minus endpoint) HDL-C, Mean ± SD / Within group change (baseline minus endpoint) LDL-C, Mean ± SD / Within group change (baseline minus endpoint) Total cholesterol, Mean ± SD / Within group change (baseline minus endpoint) Triglyceride, Mean ± SD: BP-II patients, add-on to valproic acid, 12-week follow-up; for Glucose, difference versus placebo, B (standardized coefficient) / HDL-C, difference versus placebo, B (standardized coefficient) / LDL-C, difference versus placebo, B (standardized coefficient) / Total Cholesterol, difference versus placebo, B (standardized coefficient) / Triglyceride, difference versus placebo, B (standardized coefficient): GEE interaction term, placebo as reference, controlling for age, gender, treatment duration, HDRS and YMRS
# Source text: as §1
# Symptom severity, immunological parameters (plasma tumor necrosis factor α (TNF-α) and C-reactive protein (CRP)) and plasma brain derived neurotrophic factor (BDNF) were examined regularly. Metabolic profiles (cholesterol, triglyceride, HbA1C, fasting serum glucose, body mass index [BMI]) were measured at baseline and 2, 8, and 12 weeks. Concomitant benzodiazepine medication (lorazepam <8 mg) was used for nighttime sedation, and to treat agitation and insomnia during the study. Up to 20 mg/daily of fluoxetine was permitted for associated depressive symptoms.
# as §2
# as §3, with “group. The interaction term of treatment received X treatment duration was regarded as effect of add-on DM30, MM5, and DM30+MM5. To analyze correlations between cytokines, BDNF and metabolic profiles, GEE analysis was used as well.” for “group.”
# [3] = Example 2: 4-week clinical trial of dextromethorphan added on to depakine, cholesterol and LDL; format: in vivo, human; details: 30 mg/day added on to depakine
# Description: This example was a clinical trial for the treatment of bipolar II disorder using 30 mg/day of dextromethorphan (off label use) adding on to depakine (plasma level […]). 44 patients with bipolar II disorder were recruited, and change of cholesterol was monitored only over 4 weeks.
# [4] = cited from earlier work
# BP-II patients [5] = test: Side effects / discontinuation in 12-week add-on trial; format: in vivo, human; details: 12-week trial, n=66 in group
# Source text: 250˜300 male and female BP-II patients (18˜65 years old) were recruited, from the Department of Psychiatry at National Cheng Kung University Hospital and Tri-Service General Hospital into a 12-week treatment. The research protocol was examined for approval by the Institutional Review Board for the Protection of Human Subjects at National Cheng Kung University Hospital and Tri-Service General Hospital. All participants were given a complete description of the study and were asked to sign an informed consent before the study began. Patients who had major, mental illnesses other than BP-II and who had taken memantine or DM within 1 week before the first dose of the double-blind medication were excluded. […] After each patient had been diagnosed based on DSM-IV criteria by a senior psychiatrist and confirmed by a clinical psychologist using a structured interview, SADS-L, the severity of each patient's clinical symptoms was assessed using the 17-item Hamilton Rating Scale for Depression (HRSD) and the Young Mania Rating Scale (YMRS). […]
# The severity of side effects was evaluated by using the Chinese version of Side-Effects Checklist which derived from Psychiatric Rating and Diagnostic Instruments (TRIMS, 1972) and included 7 categories as follows: 1) Mental Status; 2) Genito-Urinary; 3) Cardiovascular; 4) Head-Neck; 5) Extremities; 6) Skin; 7) Gastrointestinal. […]
# [6] = tested on: opioid addictive behavior; details: rat, 0.2 mg/kg (1/100 dosage); cited from earlier work
Structure (SMILES),"Within group change (baseline minus endpoint) HDRS, Mean ± SD (BP-II patients [1])","Within group change (baseline minus endpoint) YMRS, Mean ± SD (BP-II patients [1])","HDRS, difference versus placebo, B (standardized coefficient) (BP-II patients [1])","YMRS, difference versus placebo, B (standardized coefficient) (BP-II patients [1])","Within group change (baseline minus endpoint) TNF-α, Mean ± SD (TNF-α)","TNF-α, difference versus placebo, B (standardized coefficient) (TNF-α)","Within group change (baseline minus endpoint) CRP, Mean ± SD (CRP)","CRP, difference versus placebo, B (standardized coefficient) (CRP)","Within group change (baseline minus endpoint) BDNF, Mean ± SD (BDNF)","BDNF, difference versus placebo, B (standardized coefficient) (BDNF)","Within group change (baseline minus endpoint) Glucose, Mean ± SD [2]","Within group change (baseline minus endpoint) HDL-C, Mean ± SD [2]","Within group change (baseline minus endpoint) LDL-C, Mean ± SD [2]","Within group change (baseline minus endpoint) Total cholesterol, Mean ± SD [2]","Within group change (baseline minus endpoint) Triglyceride, Mean ± SD [2]","Glucose, difference versus placebo, B (standardized coefficient) [2]","HDL-C, difference versus placebo, B (standardized coefficient) [2]","LDL-C, difference versus placebo, B (standardized coefficient) [2]","Total Cholesterol, difference versus placebo, B (standardized coefficient) [2]","Triglyceride, difference versus placebo, B (standardized coefficient) [2]",also measured
"COc1ccc2c(c1)[C@]13CCCC[C@@H]1[C@H](C2)N(C)CC3 [DM30, dextromethorphan]",6.4 ± 4.7,4.7 ± 3.4,−1.38,−1.00,0.1 ± 2.5 pg/mL,−0.04,10.9 ± 1290.3 ng/mL,0.05,-2.3 ± 8.3 ng/mL,2.94,9.0 ± 38.1 mg/dL,1.6 ± 10.2 mg/dL,-0.9 ± 23.1 mg/dL,-0.1 ± 28.7 mg/dL,-11.6 ± 168.4 mg/dL,−5.33,0.79,8.80,6.95,28.08,"BDNF level, within group change, in words (BDNF; after 12 weeks of treatment): Significant improved; cholesterol and LDL in human, in words ([3]; 4 weeks): decreased; low density lipid protein (LDL), first value (before treatment) ([3]; 44 bipolar II patients): 127.70 ± 34.24 mg/dL; total cholesterol, first value (before treatment) ([3]; 44 bipolar II patients): 194.70 ± 39.49 mg/dL; total cholesterol over 4-week of treatment, second value ([3]; 44 bipolar II patients, P=0.09): 186.16 ± 37.95 mg/dL; low density lipid protein (LDL) over 4-week of treatment, second value ([3]; 44 bipolar II patients, P=0.13): 120.84 ± 34.013 mg/dL; plasma levels of DM ([4]; BP patients, U.S. Pat. No. 8,785,472): 5 to 100 ng/mL; plasma DM concentrations ([4]; patients taking 30-60 mg/70 kg of DM, listed as DM): 10-30 ng/ml and 28-84 nM"
"CC12CC3CC(C)(C1)CC(N)(C3)C2 [MM5, memantine]",6.3 ± 4.9,4.6 ± 3.9,−1.33,−0.98,0.3 ± 1.8 pg/mL,−0.15,-12.6 ± 1269.4 ng/mL,0.09,0.3 ± 7.6 ng/mL,0.02,-3.3 ± 22.6 mg/dL,2.4 ± 8.7 mg/dL,2.6 ± 22.0 mg/dL,0.5 ± 24.5 mg/dL,-10.7 ± 38.7 mg/dL,7.63,−0.07,4.45,3.14,8.81,"patients discontinuing with poor tolerance to a side effect (dizziness) (BP-II patients [5]): One; opioid addictive behavior by conditioned place preference, in words [6]: effective"
